Reference: patent publication US20260297060A1, “COMPOUNDS FOR THE DEGRADATION OF MUTANT BRAF” (C4 THERAPEUTICS, INC., priority 2023, published 2026)
Read-outs that look alike come from different tables or passages of the source.

What was measured:
[1] = molecular target: T1, BRAF V600E (Homo sapiens, UniProt P15056+Q96SW2, V600E); test: BRAF V600E HiBiT Degradation Assay; type: cell-based; details: for DC50: A375.10 cells, BRAF V600E, 2 hours; for Emax: read-out: HiBiT-Degradation A375.10 BRAF 2 hours Emax, A375.10 cells, BRAF V600E, 2 hours, residual protein remaining
T1 construct: knock-in of the HiBiT tag to the endogenous BRAF V600E locus; host or cells: A375.10 (A375 clonal line, CRISPR HiBiT knock-in at the endogenous BRAF V600E locus)
Outline: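 Endogenous HiBiT knock-in on BRAF V600E in A375 cells (clone A375.10); 11-point half-log series, top 10 μM, 2, 6 or 24 h at 37° C. Lytic HiBiT luminescence, background-subtracted, normalized to DMSO; 4-parameter fit gives DC50, Emax (residual protein) and IP (inflection point).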

[2] = system: A375 human melanoma xenografts; test: Example 6 efficacy study in A375 human melanoma xenografts (tumor volume, T/C, TGI); type: in vivo, BALB/c nude mice; details: p.o., QD × 21 days; for T/C / TGI / Tumor Size on PG-D21: PG-D21; for Tumor Size on PG-D21 / Tumor volume: Mean ± SEM
Method: For efficacy study, compounds were tested in the A375 human melanoma xenografts. Known BRAF inhibitors encorafenib, and dabrafenib were used as positive controls. Encorafenib and dabrafenib were administered to BALB/c nude mice bearing A375 tumors on PG-D1 and dosed PO daily (QD) for 3 weeks. Encorafenib was dosed at 35 mg/kg. Dabrafenib was dosed at 100 mg/kg. Compound 83, Compound 93, Compound 70, and Compound 54 were administered to BALB/c nude mice bearing A375 tumors on PG-DO and dosed PO twice per day (BID) for 3 weeks. Compound 83, Compound 93, Compound 70, and Compound 54 were dosed at 10 mg/kg.
The A375 tumor cells were maintained in vitro in DMEM medium supplemented with […] and 1% Penicillin-Streptomycin at 37° C. in an atmosphere of 5% CO2 in air. The tumor cells were routinely subcultured twice weekly. The cells growing in an exponential growth phase were harvested and counted for tumor inoculation.
Each mouse was inoculated subcutaneously at the right flank with A375 tumor cells (5×10^6) in 0.2 mL of PBS with Matrigel (PBS: Matrigel=1:1) supplemented for tumor development. Animals were grouped for the treatment on day 16 after tumor inoculation when the average tumor volume reached 221 mm^3 for efficacy study and 386 mm^3 for PKPD study. The test articles administration and the animal numbers in each group are shown in the above experimental Tables.
Prior to the onset of drug treatment, mice were measured for tumor size in two dimensions using a caliper, and the tumor volume (mm^3) was calculated using formula V=0.5 a×b^2 where a and b are the long and short diameters of the tumor in mm, respectively. Mice were randomized into different treatment groups based on the tumor volume.
The major endpoint was to see if the tumor growth could be delayed or mice could be cured. The tumor size was then used for calculations of T/C value. The T/C value (in percent) is an indication of antitumor effectiveness; T and C are the mean volumes of the treated and control groups, respectively on specified day.
TGI was calculated for each group using the formula: TGI (%)=[1−(Ti−T0)/(Ci−C0)]×100; Ti is the average tumor volume of a treatment group on a given day, T0 is the average tumor volume of the treatment group on the day of treatment start, Ci is the average tumor volume of the vehicle control group on the same day with Ti, and C0 is the average tumor volume of the vehicle group on the day of treatment start.

[3] = read-out: HiBiT-Degradation A375.10 BRAF 2 hours DC50
[4] = read-out: HiBiT-Degradation A375.10 BRAF 2 hours IP, inflection point

T1 sequence (P15056 whole entry V600E): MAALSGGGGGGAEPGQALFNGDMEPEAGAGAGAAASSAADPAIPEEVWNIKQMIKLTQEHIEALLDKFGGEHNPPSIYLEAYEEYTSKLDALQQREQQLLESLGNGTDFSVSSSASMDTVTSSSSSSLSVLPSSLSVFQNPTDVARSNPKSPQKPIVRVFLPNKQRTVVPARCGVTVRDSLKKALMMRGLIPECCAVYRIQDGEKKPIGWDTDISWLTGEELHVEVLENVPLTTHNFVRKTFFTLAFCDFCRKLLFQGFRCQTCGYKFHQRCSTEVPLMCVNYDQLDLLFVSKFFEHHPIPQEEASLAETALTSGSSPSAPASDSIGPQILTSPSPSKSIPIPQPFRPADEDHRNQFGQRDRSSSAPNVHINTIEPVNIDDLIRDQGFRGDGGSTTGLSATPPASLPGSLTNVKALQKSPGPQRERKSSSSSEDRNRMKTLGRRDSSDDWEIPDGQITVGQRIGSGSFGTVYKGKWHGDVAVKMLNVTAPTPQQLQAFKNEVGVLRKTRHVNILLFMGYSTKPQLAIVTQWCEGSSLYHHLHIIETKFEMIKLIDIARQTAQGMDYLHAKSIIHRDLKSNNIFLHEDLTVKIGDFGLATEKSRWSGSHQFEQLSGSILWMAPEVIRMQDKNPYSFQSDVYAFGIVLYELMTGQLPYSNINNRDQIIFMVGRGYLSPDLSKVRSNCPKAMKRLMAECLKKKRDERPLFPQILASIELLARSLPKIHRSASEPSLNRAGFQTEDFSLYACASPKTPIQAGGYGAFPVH
T1 sequence (Q96SW2 whole entry): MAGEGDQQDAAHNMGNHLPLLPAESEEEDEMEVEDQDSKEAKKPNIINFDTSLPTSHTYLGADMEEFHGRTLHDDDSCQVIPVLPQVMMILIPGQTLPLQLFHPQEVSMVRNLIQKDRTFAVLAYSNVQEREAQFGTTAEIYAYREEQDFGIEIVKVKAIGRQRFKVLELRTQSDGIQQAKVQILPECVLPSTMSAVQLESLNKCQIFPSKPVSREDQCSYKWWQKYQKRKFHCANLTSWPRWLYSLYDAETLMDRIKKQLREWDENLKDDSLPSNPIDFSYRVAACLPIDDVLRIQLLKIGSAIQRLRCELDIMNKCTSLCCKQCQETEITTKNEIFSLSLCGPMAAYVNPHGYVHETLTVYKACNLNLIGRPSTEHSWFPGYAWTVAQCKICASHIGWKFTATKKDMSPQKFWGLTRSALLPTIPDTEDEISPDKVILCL
T1 sequence (Q16531 whole entry partner): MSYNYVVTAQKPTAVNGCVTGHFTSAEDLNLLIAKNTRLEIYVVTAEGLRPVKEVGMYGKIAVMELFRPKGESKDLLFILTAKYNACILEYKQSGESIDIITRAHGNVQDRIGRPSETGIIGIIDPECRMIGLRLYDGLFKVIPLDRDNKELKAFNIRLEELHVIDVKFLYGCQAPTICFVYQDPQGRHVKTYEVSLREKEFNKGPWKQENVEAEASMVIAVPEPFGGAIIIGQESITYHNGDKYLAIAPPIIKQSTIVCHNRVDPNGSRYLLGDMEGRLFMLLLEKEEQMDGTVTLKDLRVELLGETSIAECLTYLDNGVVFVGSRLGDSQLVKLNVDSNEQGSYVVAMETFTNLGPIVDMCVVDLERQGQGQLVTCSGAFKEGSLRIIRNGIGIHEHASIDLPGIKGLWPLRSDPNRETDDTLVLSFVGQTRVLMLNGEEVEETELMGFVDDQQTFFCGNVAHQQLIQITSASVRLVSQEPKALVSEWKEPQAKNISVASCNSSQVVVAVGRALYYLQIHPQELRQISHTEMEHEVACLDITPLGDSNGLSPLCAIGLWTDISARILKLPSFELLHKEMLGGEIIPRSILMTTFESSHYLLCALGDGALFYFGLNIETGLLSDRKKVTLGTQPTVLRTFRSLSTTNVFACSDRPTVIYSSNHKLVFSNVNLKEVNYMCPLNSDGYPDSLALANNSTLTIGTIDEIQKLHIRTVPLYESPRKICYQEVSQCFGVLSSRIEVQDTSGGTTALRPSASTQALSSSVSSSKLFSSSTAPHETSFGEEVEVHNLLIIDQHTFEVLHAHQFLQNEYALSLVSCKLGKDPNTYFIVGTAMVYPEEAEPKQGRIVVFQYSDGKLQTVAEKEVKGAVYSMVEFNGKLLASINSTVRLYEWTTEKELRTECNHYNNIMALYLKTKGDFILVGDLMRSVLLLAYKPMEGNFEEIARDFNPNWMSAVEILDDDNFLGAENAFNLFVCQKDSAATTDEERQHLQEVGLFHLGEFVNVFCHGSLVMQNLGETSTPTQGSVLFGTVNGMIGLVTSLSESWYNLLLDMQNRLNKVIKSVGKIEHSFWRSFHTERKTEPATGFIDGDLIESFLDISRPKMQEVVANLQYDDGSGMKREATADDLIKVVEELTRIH

SMILES: COC1CN(S(=O)(=O)Nc2ccc(F)c(Oc3ccc4ncn(C5CC6(CCN(C7CC8(C7)CN(c7cc9c(cc7F)c(N7CCC(=O)NC7=O)nn9C)C8)CC6)C5)c(=O)c4c3)c2C#N)C1 (centres unmarked) [Compound 280, N-[2-cyano-3-[3-[7-[2-[3-(2,4-dioxohexahydropyrimidin-1-yl)-5-fluoro-1-methyl-indazol-6-yl]-2-azaspiro[3.3]heptan-6-yl]-7-azaspiro[3.5]nonan-2-yl]-4-oxo-quinazolin-6-yl]oxy-4-fluoro-phenyl]-3-methoxy-azetidine-1-sulfonamide]
- DC50 [1, 3]: < 1 µM
- Emax [1]: < 50%
- DC50 [1, 4]: < 1 µM

SMILES: CO[C@@H]1CCN(S(=O)(=O)Nc2ccc(F)c(Oc3ccc4ncn(C5CC6(CCN(C7CC8(C7)CN(c7cc9c(cc7F)c(N7CCC(=O)NC7=O)nn9C)C8)CC6)C5)c(=O)c4c3)c2C#N)C1 (stereo partly drawn) [Compound 269, (3R)-N-[2-cyano-3-[3-[7-[2-[3-(2,4-dioxohexahydropyrimidin-1-yl)-5-fluoro-1-methyl-indazol-6-yl]-2-azaspiro[3.3]heptan-6-yl]-7-azaspiro[3.5]nonan-2-yl]-4-oxo-quinazolin-6-yl]oxy-4-fluoro-phenyl]-3-methoxy-pyrrolidine-1-sulfonamide]
- DC50 [1, 3]: < 1 µM
- Emax [1]: < 50%
- DC50 [1, 4]: < 1 µM

SMILES: COC(=O)N[C@@H](C)CNc1nccc(-c2cn(C(C)C)nc2-c2cc(Cl)cc(NS(C)(=O)=O)c2F)n1 [Encorafenib, encorafenib, reference compound]
- T/C ([2]; 35 mg/kg): 10.6%
- TGI ([2]; 35 mg/kg): 99.3%
- Tumor Size on PG-D21 ([2]; 35 mg/kg): 235 ± 68 mm^3
- Tumor volume ([2]; 35 mg/kg, day 0): 221 ± 10 mm^3
- Tumor volume ([2]; 35 mg/kg, day 4): 260 ± 22 mm^3
- Tumor volume ([2]; 35 mg/kg, day 7): 278 ± 17 mm^3
- Tumor volume ([2]; 35 mg/kg, day 11): 238 ± 18 mm^3
- Tumor volume ([2]; 35 mg/kg, day 14): 209 ± 31 mm^3
- Tumor volume ([2]; 35 mg/kg, day 18): 196 ± 47 mm^3
- Tumor volume ([2]; 35 mg/kg, day 21): 235 ± 68 mm^3

SMILES: CC(C)(C)c1nc(-c2cccc(NS(=O)(=O)c3c(F)cccc3F)c2F)c(-c2ccnc(N)n2)s1 [Dabrafenib, dabrafenib, reference compound]
- T/C ([2]; 100 mg/kg): 26.6%
- TGI ([2]; 100 mg/kg): 81.5%
- Tumor Size on PG-D21 ([2]; 100 mg/kg): 588 ± 244 mm^3
- Tumor volume ([2]; 100 mg/kg, day 0): 221 ± 10 mm^3
- Tumor volume ([2]; 100 mg/kg, day 4): 288 ± 19 mm^3
- Tumor volume ([2]; 100 mg/kg, day 7): 348 ± 33 mm^3
- Tumor volume ([2]; 100 mg/kg, day 11): 383 ± 64 mm^3
- Tumor volume ([2]; 100 mg/kg, day 14): 407 ± 122 mm^3
- Tumor volume ([2]; 100 mg/kg, day 18): 454 ± 159 mm^3
- Tumor volume ([2]; 100 mg/kg, day 21): 588 ± 244 mm^3
